{"source": "patent US9180183B2", "about": "“Phospholipid drug analogs” (Telormedix SA, priority 2010, dated 2015)", "key": {"[1]": {"experiment": "Serum exposure after intravesical chronic treatment in mouse", "settings": "intravesical, LLOQ 0.5 ng/ml", "description": "Serum samples were taken at time points: day 0, 2 hours, day 1, 24 hours, and day 6, 2 hours.\nSamples were evaporated and re-suspended in 70 microliters of acetonitrile/methanol 1:1."}, "PBMCs": {"test_system": "PBMCs", "experiment": "IL-6 and TNF-alpha secretion in PBMCs (ELISA), Model 2", "type": "cell-based, human", "settings": "three donors"}, "[2]": {"test_system": "AY-27 rat bladder cancer cell-line", "settings": "day 12"}, "[3]": {"test_system": "recombinant protein antigens from Plasmodium falciparum and Mycobacterium ulcerans", "experiment": "Pilot immunization study with adjuvanted protein antigens in mice", "type": "in vivo", "description": "A pilot immunization study was conducted using Compound A and SC12 adjuvanted protein antigens. The immunization experiments were performed with two recombinant proteins expressed in E. coli. One antigen was derived from the malaria parasite Plasmodium falciparum and the other one from Mycobacterium ulcerans, which cause the ulcerative skin disease Buruli ulcer."}, "[4]": {"test_system": "Cutaneous Squamous Cell Carcinoma (SCC) cell lines SCL-I, SCL-II, SCC-12, SCC-13", "experiment": "Proapoptotic and cytotoxic effects on cutaneous SCC cell lines (real-time cell analysis, microscopy)", "type": "cell-based, human", "description": "SCC cells are grown under standard conditions (10% FBS).\nTime and dose dependency of effects on total cell numbers have been investigated by real-time cell analysis, which is based on continuous monitoring of electric conductance in microtiter wells (E-plates, Roche), which corresponds to the cell numbers. […] For these assays 4 cell lines should be used to obtain a representative overview on the effects on SCC cells."}, "[5]": {"experiment": "Stability study of SC12 under storage conditions (HPLC)", "type": "physicochemical"}, "CYP3A4": {"target": "CYP3A4 (Homo sapiens (Human), UniProt P08684)", "sequence (P08684 whole entry, looked up)": "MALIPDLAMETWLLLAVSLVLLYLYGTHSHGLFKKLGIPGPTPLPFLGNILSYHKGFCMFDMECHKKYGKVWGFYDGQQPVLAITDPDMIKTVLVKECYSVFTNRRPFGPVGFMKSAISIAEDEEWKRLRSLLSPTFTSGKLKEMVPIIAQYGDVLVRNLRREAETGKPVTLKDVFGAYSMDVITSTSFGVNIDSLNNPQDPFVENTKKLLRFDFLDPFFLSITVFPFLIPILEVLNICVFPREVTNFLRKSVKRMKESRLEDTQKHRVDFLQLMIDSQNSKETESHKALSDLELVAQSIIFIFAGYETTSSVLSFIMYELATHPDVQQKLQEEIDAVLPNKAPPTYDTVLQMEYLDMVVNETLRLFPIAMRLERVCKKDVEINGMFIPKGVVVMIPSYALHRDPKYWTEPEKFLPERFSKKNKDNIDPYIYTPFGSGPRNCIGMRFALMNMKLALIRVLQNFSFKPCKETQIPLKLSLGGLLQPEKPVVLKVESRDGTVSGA", "experiment": "Fluorescent High Throughput P450 assay CYP3A4", "type": "in vitro ADME", "method": "Inhibition of the P450 isoforms was measured in specific assays using specific substrates that become fluorescent upon CYP metabolism. Compounds, dissolved in ACN (acetonitrile) (CYP2E1, CYP2C8, CYP2B6, CYP3A5) or DMSO (all remaining isoforms), were tested in duplicate (n=2) in concentration-response curves (eight concentrations) in a 96-well plate containing incubation/NADPH regenerating buffer. Specific isoenzymes and substrates were added and incubated at 37° C. Reactions were terminated at different times, depending on the assays, and plates read on a Fluoroskan Ascent at the appropriate emission/excitation wavelengths. Concentration-response curves performed in duplicate for known inhibitors for each isoenzyme were tested in every assay as positive control."}, "[6]": {"experiment": "Intravenous pharmacokinetics in the mouse", "settings": "IV bolus 1 mg/kg; for Plasma concentration Mean ± S.D.: LLOQ: 5 ng/ml", "description": "An IV bolus was administered into the caudal vein at a dose of 1 mg/kg in 5 ml. The compound weight was 2.08/10.04 ml. 24 mice were studied. Sampling was obtained by exsanguination under anesthesia, at 5, 15, 30, 60, 240, and 480 minutes, and at 24 hours. […] Animals were sacrificed using ethyl ether at the conclusion of the experiment.\nSample preparation: In a Sirocco filter plate, 100 microliters of plasma were added to 300 microliters of ACN/MeOH spiked with 5 microliters of IS (IV298 10 micrograms per ml) plus 10 microliters of 5% H3PO4. The plate was shaken for 10 minutes at 80 rpm and then filtered under vacuum for 5 minutes.\nAnalytical method: LC/MS/MS: Premiere XE, Eluent: water (A) MeOH (B) plus 0.1% HCOOH gradient. 15% B to 100% B from 0.1 to 0.5, then isocratic 100% B up to 1.5 minutes, flow 0.8 ml/min; Column Acquity UPLC BEH C18 1.7 microm 2.1×50 mm, injection volume of 5 microliters in a T column at 50° C. ESI positive, MRM, Extractor 5V; Capillary 3.5 kV; T source 115° C.; T desolv. 450° C.\nData analysis: Non-compartmental analysis WinNonlin 5.1; linear trapezoidal, uniform weight."}, "[7]": {"experiment": "Plasma stability in human plasma (second experiment)", "settings": "up to 120 min", "description": "Second experiment: Test compounds (5 mM in DMSO) were diluted at the final concentration of 250 μM with ACN-MeOH 1:1.\nHuman plasma (1.180 ml) was spiked with 20 μl of 250 μM solution of the compound (4.16 μM final concentration) and aliquots of 50 μl volume were taken at 0, 15, 30, 60, 120 min and 5 hrs, and immediately quenched with 200 μl of a solution of Verapamil 250 ng/ml (internal standard, I.S.) in ACN:MeOH 95:5. Samples were then centrifuged for 20 min at 3000 rpm at 10° C. and analyzed as reported below. […] The supernatant fractions were analyzed by LC/MS/MS. Zero-time incubations were used as 100% values.\nStability was calculated as percentage remaining of the area ratio compound/I.S. at each time point vs. area ratio compound/I.S. at time 0 min."}, "[8]": {"test_system": "HLA-DR+/CD11c-/CD123+ pDCs", "experiment": "FACS analysis of plasmacytoid DC activation in whole blood", "type": "cell-based, human", "settings": "24 hours; 0.1 and 0.5 uM; three donors", "description": "A flow cytometric analysis was performed on whole blood from three donors after treatment with two compound concentrations for 24 h. The FACS analysis for donor 1 and donor 2 was made on another day than donor 3. The compound concentrations were as follows:\nThe FACS analysis was used to identify whether the test compounds could induce activation of B cells, and two different subsets of dendritic cells, namely the myeloid CD11c+/CD123− DCs and the plasmacytoid CD11c−/CD123+ DCs. The following markers were studied to identify the activation status of the different subsets:\nThe FACS staining was performed according to the manufacturer's instructions. Lysis of red blood cells was performed before FACS staining in order to minimize auto-florescence. To include as many B cells and DCs in the study as possible the FACS analyses were performed on 500,000 cells in total for each staining. A P1 gate was set only to include relevant cells on FSC vs. SSC (see FIGS. 12-15). The results of the individual analysis were present as Mean Fluorescence Intensity\nThe analysis of pDCs was based on HLA-DR+/CD11c−/CD123+ cells, thus all analyzed cells were included in the HLA-DR+ (P3) gate and CD11c−/CD123+ (Q1) gate. (FIGS. 13-15)."}, "[9]": {"settings": "solid, RT and light, t = 20 days"}, "[10]": {"settings": "solid, external T and light, t = 20 days"}, "[11]": {"settings": "solution in CHCl3, RT and light, t = 0"}, "[12]": {"settings": "solution in CHCl3, RT and light, t = 20 days"}}, "note": "Where “and” joins values, the source holds several entries; their conditions need not be identical. Equal entries are not always repeated."}
{"smiles": "CCCCCCCCCCCC(=O)OCC(COP(=O)(O)OCCNC(=O)c1ccc(Cn2c(=O)[nH]c3c(N)nc(OCCOC)nc32)cc1)OC(=O)CCCCCCCCCCC", "note": "(stereo not drawn) [SC12]", "values": [{"measurement": "SC12 levels in serum, Mean ± S.D.", "setting": "[1]; Day 0, 2 hours", "value": "0.5 ± 0.5", "unit": "ng/mL"}, {"measurement": "SC12 levels in serum, individual mice", "setting": "[1]; Day 0, 2 hours", "value": "<LLOQ (2×) and 1.0 ng/ml and 0.5 ng/ml"}, {"measurement": "SC12 levels in serum, Mean ± S.D.", "setting": "[1]; Day 1, 24 hours", "value": "<LLOQ"}, {"measurement": "SC12 levels in serum, individual mice", "setting": "[1]; Day 1, 24 hours", "value": "<LLOQ"}, {"measurement": "SC12 levels in serum, Mean ± S.D.", "setting": "[1]; Day 6, 2 hours", "value": "<LLOQ"}, {"measurement": "SC12 levels in serum, individual mice", "setting": "[1]; Day 6, 2 hours", "value": "<LLOQ"}, {"measurement": "induction of IL-6 and TNF-alpha secretion (in words)", "setting": "PBMCs", "value": "most potent TLR7 agonists"}, {"measurement": "Range of weight of the rat bladders", "setting": "[2]; 0.5 ml intravesical instillation (Imiquimod 0.1%, SC12 0.38%) on day 2 and 5", "value": "0.0780-0.1422 grams"}, {"measurement": "Tumor free (% of rats)", "setting": "[2]; of 14 rats per group", "value": 42.9, "unit": "%"}, {"measurement": "Tumor free (number of rats)", "setting": "[2]; of 14 rats per group", "value": 6}, {"measurement": "pT2 Tumor (% of rats)", "setting": "[2]; of 14 rats per group", "value": 50.0, "unit": "%"}, {"measurement": "pT2 Tumor (number of rats)", "setting": "[2]; of 14 rats per group", "value": 7}, {"measurement": "pTa Tumor (% of rats)", "setting": "[2]; of 14 rats per group", "value": 7.1, "unit": "%"}, {"measurement": "pTa Tumor (number of rats)", "setting": "[2]; of 14 rats per group", "value": 1}, {"measurement": "local side effects", "setting": "[3]; three s.c. immunizations with 10 nMol adjuvant", "value": "No local side effects"}, {"measurement": "IgG responses against the target antigens", "setting": "[3]; three s.c. immunizations, 20 micrograms antigen mixed with 10 nMol adjuvant, after the third immunization", "value": "developed IgG responses"}, {"measurement": "morphological changes (microscopy)", "setting": "[4]; SCC cells, time of treatment 3d, 120 microM", "value": "cell detachment, morphological changes and inhibition of proliferation"}, {"measurement": "cell numbers (real-time cell analysis, electric conductance)", "setting": "[4]; cutaneous SCC cell lines", "value": "reduced cell numbers"}, {"measurement": "HPLC % at RRT = 1 (main peak)", "setting": "[5]; [9]", "value": "RRT = 1: 87.8%"}, {"measurement": "HPLC % of impurity at RRT = 0.88", "setting": "[5]; [9]", "value": "RRT = 0.88: 6.2%"}, {"measurement": "HPLC % of impurity at RRT = 1.21", "setting": "[5]; [9]", "value": "RRT = 1.21: 4.8%"}, {"measurement": "HPLC % at RRT = 1 (main peak)", "setting": "[5]; [10]", "value": "RRT = 1: 84.0%"}, {"measurement": "HPLC % of impurity at RRT = 0.88", "setting": "[5]; [10]", "value": "RRT = 0.88: 6.6%"}, {"measurement": "HPLC % of impurity at RRT = 1.21", "setting": "[5]; [10]", "value": "RRT = 1.21: 7.1%"}, {"measurement": "HPLC % at RRT = 1 (main peak)", "setting": "[5]; [11]", "value": "RRT = 1: 90.3%"}, {"measurement": "HPLC % of impurity at RRT = 0.46", "setting": "[5]; [11]", "value": "RRT = 0.46: 5.7%"}, {"measurement": "HPLC % of impurity at RRT = 1.21", "setting": "[5]; [11]", "value": "RRT = 1.21: 0.9%"}, {"measurement": "HPLC % at RRT = 1 (main peak)", "setting": "[5]; [12]", "value": "RRT = 1: 88.0%"}, {"measurement": "HPLC % of impurity at RRT = 0.88", "setting": "[5]; [12]", "value": "RRT = 0.88: 6.2%"}, {"measurement": "HPLC % of impurity at RRT = 1.21", "setting": "[5]; [12]", "value": "RRT = 1.21: 5.0%"}, {"measurement": "inhibition of CYP3A4 (in words)", "setting": "CYP3A4", "value": "moderate inhibition"}, {"measurement": "adverse behavioral effects", "setting": "[6]", "value": "No adverse behavioral effects"}, {"measurement": "Cl", "setting": "[6]; plasma", "value": 77.7, "unit": "mL/min/kg"}, {"measurement": "Clast", "setting": "[6]; plasma", "value": 6, "unit": "ng/mL"}, {"measurement": "MRT", "setting": "[6]; plasma", "value": 32, "unit": "min"}, {"measurement": "T ½", "setting": "[6]; plasma", "value": 130, "unit": "min"}, {"measurement": "Tlast", "setting": "[6]; plasma", "value": 120, "unit": "min"}, {"measurement": "Tmax", "setting": "[6]; plasma", "value": 5, "unit": "min"}, {"measurement": "Vss", "setting": "[6]; plasma", "value": 2.5, "unit": "L/kg"}, {"measurement": "Plasma concentration Mean ± S.D.", "setting": "[6]; 240 min", "value": "<LLOQ"}, {"measurement": "Plasma concentration Mean ± S.D.", "setting": "[6]; 480 min", "value": "<LLOQ"}, {"measurement": "Plasma concentration Mean ± S.D.", "setting": "[6]; 1440 min", "value": "<LLOQ"}, {"measurement": "stability classification", "setting": "[7]", "value": "stable"}, {"measurement": "CD80 expression in pDCs (MFI, in words)", "setting": "[8]", "value": "induces a slightly higher CD80 expression than compound A"}, {"measurement": "CD86 expression in pDCs (MFI, in words)", "setting": "[8]", "value": "tendency to induce higher CD86 expression than compound A"}]}
